The target of this test is Mu-type opioid receptor (Homo sapiens) + Delta-type opioid receptor (Homo sapiens) (UniProt P35372+P41143). In words: OPRM1-OPRD1 heterodimer agonist potency – cell-based, luminescence, counter-screen for MC4R biased agonist project, dose response (AID 602264). Conditions: cell-based OPRM1-OPRD1 heterodimerization. Background: A counterscreen serves to expose hits that act by an unwanted route or on another target.

Calls of active or inactive are those of the source. How the calls were made is not given here.

Sequence of Mu-type opioid receptor (Homo sapiens) + Delta-type opioid receptor (Homo sapiens) (P35372 whole entry, looked up): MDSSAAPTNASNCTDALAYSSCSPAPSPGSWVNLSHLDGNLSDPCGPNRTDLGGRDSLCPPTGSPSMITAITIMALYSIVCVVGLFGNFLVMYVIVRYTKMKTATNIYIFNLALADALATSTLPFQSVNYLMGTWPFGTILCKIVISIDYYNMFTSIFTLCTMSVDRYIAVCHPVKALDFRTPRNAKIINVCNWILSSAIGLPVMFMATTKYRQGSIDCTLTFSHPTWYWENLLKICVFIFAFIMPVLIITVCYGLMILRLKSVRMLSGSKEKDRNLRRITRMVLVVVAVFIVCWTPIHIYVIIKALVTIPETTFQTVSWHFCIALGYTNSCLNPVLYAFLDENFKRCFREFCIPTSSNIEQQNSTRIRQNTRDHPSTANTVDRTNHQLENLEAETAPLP
Sequence of Mu-type opioid receptor (Homo sapiens) + Delta-type opioid receptor (Homo sapiens) (P41143 whole entry, looked up): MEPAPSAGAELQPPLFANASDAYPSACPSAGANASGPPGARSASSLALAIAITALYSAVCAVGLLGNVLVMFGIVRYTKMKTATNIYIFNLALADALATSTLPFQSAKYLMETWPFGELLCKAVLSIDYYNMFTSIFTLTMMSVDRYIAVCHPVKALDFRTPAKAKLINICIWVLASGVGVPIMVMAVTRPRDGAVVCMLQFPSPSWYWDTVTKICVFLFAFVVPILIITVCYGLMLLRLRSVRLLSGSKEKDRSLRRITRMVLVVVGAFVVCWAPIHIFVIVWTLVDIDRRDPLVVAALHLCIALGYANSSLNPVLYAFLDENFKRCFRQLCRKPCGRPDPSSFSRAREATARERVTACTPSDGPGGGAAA

`COc1ccccc1-c1cc(NC(C)=O)c2ncc(-c3cccc(C(F)(F)F)c3)n2c1`: the EC50 – broadly, the concentration at which the effect is half-maximal – was > 92.5 µM (inactive).
Under `CC(=O)Nc1cc(-c2ccccc2)cn2c(-c3ccc(F)c(Cl)c3)cnc12` stands > 92.5 µM (inactive).
As to `CC(=O)Nc1cc(-c2ccccc2N(C)C)cn2c(-c3ccccc3)cnc12`, the EC50 is > 92.4 µM (inactive).
Under `COc1cc(O)c(CC=C(C)C)c(O)c1C(=O)CCc1ccc(O)cc1` stands > 64.6 µM (inactive).
The value for `N#Cc1sc2nc(-c3cccs3)cc(-c3ccc(F)cc3)c2c1N` was > 92.5 µM (inactive); that for `CN(C)CCCN(C(=O)c1cc2cc([N+](=O)[O-])ccc2s1)c1nc2cc3c(cc2s1)OCCO3` was > 92.5 µM (inactive).
Under `FC(F)(F)c1cccnc1Oc1ccc(C2=NCCS2)cc1` stands > 92.4 µM (inactive); under `COc1ccc(-c2cc(NC(C)=O)c3ncc(-c4cccc(C(F)(F)F)c4)n3c2)c(OC)c1`, > 92.5 µM (inactive); under `OC(CNCCc1ccc(C(F)(F)F)cc1)COc1cccc2ccccc12` (stereo unspecified), > 92.5 µM (inactive).
As for `CC1(C)Oc2ccc3ccc(=O)oc3c2/C(=C/Nc2ccc(O)cc2)C1=O`, the EC50 was > 64.6 µM (inactive).
In the case of `O=C(Nc1nc2ccc(SC(F)F)cc2s1)c1ccc(NS(=O)(=O)c2ccc(F)c(F)c2)cc1`, the EC50 was > 64.6 µM (inactive).
The value for `CC(=O)Nc1cc(-c2cccc(NS(C)(=O)=O)c2)cn2c(-c3ccccc3)cnc12` was > 92.5 µM (inactive); that for `COc1ccc(CNC(=O)Nc2nc(C(N)Cc3ccc(C(F)(F)F)cc3)cs2)cc1` (stereo unspecified) was > 64.6 µM (inactive); that for `COc1ccc(-c2cc(NC(C)=O)c3ncc(-c4ccc(F)cc4)n3c2)cc1OC` was > 64.6 µM (inactive).
As for `COc1ccc2oc(=O)c(-c3csc(Nc4cccc(O)c4)n3)cc2c1`, the EC50 was > 92.4 µM (inactive).
`CCN1/C(=C/c2ccc3cc(C)ccc3[n+]2CC)Sc2cc(C)c(C)cc21`: the EC50 is > 10.3 µM (inactive).
In the case of `O=C(NC(c1ccccc1)c1ccsc1)C1CCN(CCOc2ccc(Cl)cc2Cl)CC1` (stereo unspecified), the EC50 entry was “inactive”.
Turning to `Cc1ccc(NC(=O)c2ncn(CCCN3CCN(Cc4cccc5ccccc45)CC3)n2)cc1C`, the EC50 is > 92.5 µM (inactive).
Consider `CN(C)CCOc1ccc(-c2c(-c3ccsc3)sc3ccccc23)cc1`, for which the EC50 was > 92.5 µM (inactive).
On to `COc1cccc2sc(N(CCCN(C)C)C(=O)C(c3ccccc3)c3ccccc3)nc12`, for which the EC50 is > 64.6 µM (inactive).
The value for `COc1cccc(/C=C2/SC(=S)N(CCCC(=O)Nc3ccc(O)cc3)C2=O)c1` was > 92.5 µM (inactive).
The value for `O=C(CCN1C(=O)/C(=C/C=C/c2ccccc2)SC1=S)Nc1ccccn1` was > 92.5 µM (inactive).
The value for `NC(CCc1ccccc1)c1csc(Nc2ccc(C(=O)c3ccccc3)cc2)n1` (stereo unspecified) was > 92.5 µM (inactive); that for `CCN1CCC(O)(/C=C/c2ccc(C(C)C)cc2)C(C(=O)/C=C/c2ccc(C(C)C)cc2)C1` (stereo unspecified) was > 64.6 µM (inactive); that for `O=C(Nc1cc(-c2nc3ccccc3s2)ccc1Cl)c1ccc2c(c1)OCO2` was > 92.4 µM (inactive).
Regarding `COc1ccccc1-c1cc(NC(C)=O)c2ncc(-c3cccc(C(C)=O)c3)n2c1`, the EC50 is > 64.6 µM (inactive).
Under `Cc1ccc(C(=O)Nc2nc(C(N)Cc3ccc(C(F)(F)F)cc3)cs2)cc1` (stereo unspecified) stands > 64.6 µM (inactive).
In the case of `CCc1ccc(OCCNc2cc(N3CCNC(C)C3)ccc2[N+](=O)[O-])cc1` (stereo unspecified), the EC50 is > 92.5 µM (inactive).
For the compound `COc1ccc(-c2cc(NC(C)=O)c3ncc(-c4ccc(OC)c(OC)c4)n3c2)cc1OC`, the EC50 is > 64.6 µM (inactive).
The value for `CC(C)c1ccc(NC(=O)CSc2ncccc2C(=O)Oc2cccc([N+](=O)[O-])c2)cc1` was > 92.5 µM (inactive).
With `Nc1ccc(C2(c3ccc(N)cc3)c3ccccc3-c3ccccc32)cc1`, the EC50 is > 92.5 µM (inactive).

For the origin of these results see PubChem BioAssay AID602264 (The Scripps Research Institute Molecular Screening Center, 2012).
